Experimental data as given in ChEMBL document CHEMBL5038665, “Identification of the Benzoimidazole Compound as a Selective FLT3 Inhibitor by Cell-Based High-Throughput Screening of a Diversity Library” (J Med Chem, 2022).
Activity calls are given as the source filed them. The calls are words filed in the database; no cut-off is given here.

Experiments:
MOLM-13 [1] = assay: Induction of apoptosis in human MOLM-13 cells assessed as survival population at 0.5 uM measured after 48 hrs by Annexin V-FITC/propidium iodide staining based flow cytometry(reference value: 97.35 %); format: functional
[2] = Induction of apoptosis in mouse Ba/F3 FLT3-ITD cells assessed as survival population at 0.1 uM measured after 48 hrs by Annexin V-FITC/propidium iodide staining based flow cytometry(reference value: 93.99 %); format: functional
HL-60 = assay: Antiproliferative activity against human HL-60 cells expressing wild type FLT3 assessed as reduction in cell viability measured after 72 hrs by MTS assay; format: functional, cell-based; details: HL-60, 72 h
[3] = molecular target: T1, Receptor-type tyrosine-protein kinase FLT3 (Mus musculus) (UniProt Q00342); assay: Inhibition of FLT3-mediated signalling pathway in mouse Ba/F3 FLT3-ITD cells assessed as inhibition of STAT5 phosphorylation at 1 to 900 nM measured after 12 hrs by western blot analysis; format: cell-based; details: dose 1-900 nM
T1 sequence (whole entry): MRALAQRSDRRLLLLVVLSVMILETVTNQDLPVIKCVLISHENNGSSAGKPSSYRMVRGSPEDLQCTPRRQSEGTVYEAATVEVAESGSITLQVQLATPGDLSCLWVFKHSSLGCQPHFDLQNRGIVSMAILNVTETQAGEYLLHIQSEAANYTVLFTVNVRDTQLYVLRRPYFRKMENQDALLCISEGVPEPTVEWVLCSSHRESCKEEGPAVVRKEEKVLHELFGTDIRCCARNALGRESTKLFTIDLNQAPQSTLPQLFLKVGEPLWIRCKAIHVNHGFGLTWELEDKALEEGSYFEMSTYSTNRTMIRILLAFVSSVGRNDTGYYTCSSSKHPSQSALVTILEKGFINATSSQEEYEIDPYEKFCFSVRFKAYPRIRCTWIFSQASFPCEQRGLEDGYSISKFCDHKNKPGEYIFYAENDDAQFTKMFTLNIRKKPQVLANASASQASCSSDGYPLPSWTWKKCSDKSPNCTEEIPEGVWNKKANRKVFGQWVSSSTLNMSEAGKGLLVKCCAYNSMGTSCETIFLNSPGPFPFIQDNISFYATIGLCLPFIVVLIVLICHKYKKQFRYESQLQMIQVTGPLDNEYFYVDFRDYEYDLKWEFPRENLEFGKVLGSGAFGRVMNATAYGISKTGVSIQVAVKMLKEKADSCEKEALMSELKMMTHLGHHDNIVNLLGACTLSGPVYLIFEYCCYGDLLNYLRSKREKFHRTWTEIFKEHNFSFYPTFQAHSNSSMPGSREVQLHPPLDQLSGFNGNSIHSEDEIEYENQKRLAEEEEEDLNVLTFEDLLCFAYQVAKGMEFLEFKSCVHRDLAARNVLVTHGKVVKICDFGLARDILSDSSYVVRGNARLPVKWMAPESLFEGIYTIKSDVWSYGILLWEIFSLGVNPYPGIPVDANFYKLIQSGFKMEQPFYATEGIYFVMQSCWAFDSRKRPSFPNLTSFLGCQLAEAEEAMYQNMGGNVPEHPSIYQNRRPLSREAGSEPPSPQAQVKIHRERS

[4] = Tmax in 12 hrs fasted Sprague-Dawley rat at 15 mg/kg, po measured upto 24 hrs by LC-MS analysis; format: ADME, organism-based; details: in vivo
[5] = Induction of apoptosis in mouse BaF3 cells assessed as survival population at 0.5 uM measured after 48 hrs by Annexin V-FITC/propidium iodide staining based flow cytometry(reference value: 96.35 %); format: toxicity, cell-based; details: read-out: Activity
MV4-11 [6] = assay: Induction of apoptosis in human MV4-11 cells assessed as survival population at 0.1 uM measured after 48 hrs by Annexin V-FITC/propidium iodide staining based flow cytometry(reference value: 98.01 %); format: functional
MOLM-13 [7] = assay: Antiproliferative activity against human MOLM-13 cells harboring FLT3-ITD mutant assessed as reduction in cell viability measured after 72 hrs by MTS assay; format: functional, cell-based; details: MOLM-13, 72 h
MV4-11 [8] = assay: Antitumor activity against human MV4-11 cells xenografted in Balb/c mouse assessed as tumor growth inhibition at 100 mg/kg, po administered for 28 days; format: functional, organism-based; details: time 28.0 day
[9] = Induction of apoptosis in mouse Ba/F3 FLT3-ITD cells assessed as survival population at 1 uM measured after 48 hrs by Annexin V-FITC/propidium iodide staining based flow cytometry(reference value: 93.99 %); format: functional
[10] = Toxicity in Balb/c mouse implanted with mouse Ba/F3 FLT3-ITD cells assessed as body weight loss at 30 to 100 mg/kg, po administered for 14 days; format: organism-based, BaF3; details: in vivo, 336 h, time 14 day
[11] = molecular target: T1, Receptor-type tyrosine-protein kinase FLT3 (Mus musculus); assay: Inhibition of FLT3 phosphorylation in mouse Ba/F3 FLT3-ITD cells assessed as reduction in phosphorylated FLT3 level measured after 12 hrs by western blot analysis; format: cell-based
MOLM-13 [12] = assay: Induction of apoptosis in human MOLM-13 cells assessed as survival population at 1 uM measured after 48 hrs by Annexin V-FITC/propidium iodide staining based flow cytometry(reference value: 97.35 %); format: functional
[13] = Half life in 12 hrs fasted Sprague-Dawley rat at 15 mg/kg, po measured upto 24 hrs by LC-MS analysis; format: ADME, organism-based; details: in vivo
MV4-11 [14] = assay: Antiproliferative activity against human MV4-11 cells harboring FLT3-ITD mutant assessed as reduction in cell viability measured after 72 hrs ny MTS assay; format: functional, cell-based; details: MV4-11, 72 h
[15] = molecular target: Mast/stem cell growth factor receptor Kit (Homo sapiens, UniProt P10721); assay: Inhibition of KIT (unknown origin)
Mast/stem cell growth factor receptor Kit, sequence (P10721 whole entry): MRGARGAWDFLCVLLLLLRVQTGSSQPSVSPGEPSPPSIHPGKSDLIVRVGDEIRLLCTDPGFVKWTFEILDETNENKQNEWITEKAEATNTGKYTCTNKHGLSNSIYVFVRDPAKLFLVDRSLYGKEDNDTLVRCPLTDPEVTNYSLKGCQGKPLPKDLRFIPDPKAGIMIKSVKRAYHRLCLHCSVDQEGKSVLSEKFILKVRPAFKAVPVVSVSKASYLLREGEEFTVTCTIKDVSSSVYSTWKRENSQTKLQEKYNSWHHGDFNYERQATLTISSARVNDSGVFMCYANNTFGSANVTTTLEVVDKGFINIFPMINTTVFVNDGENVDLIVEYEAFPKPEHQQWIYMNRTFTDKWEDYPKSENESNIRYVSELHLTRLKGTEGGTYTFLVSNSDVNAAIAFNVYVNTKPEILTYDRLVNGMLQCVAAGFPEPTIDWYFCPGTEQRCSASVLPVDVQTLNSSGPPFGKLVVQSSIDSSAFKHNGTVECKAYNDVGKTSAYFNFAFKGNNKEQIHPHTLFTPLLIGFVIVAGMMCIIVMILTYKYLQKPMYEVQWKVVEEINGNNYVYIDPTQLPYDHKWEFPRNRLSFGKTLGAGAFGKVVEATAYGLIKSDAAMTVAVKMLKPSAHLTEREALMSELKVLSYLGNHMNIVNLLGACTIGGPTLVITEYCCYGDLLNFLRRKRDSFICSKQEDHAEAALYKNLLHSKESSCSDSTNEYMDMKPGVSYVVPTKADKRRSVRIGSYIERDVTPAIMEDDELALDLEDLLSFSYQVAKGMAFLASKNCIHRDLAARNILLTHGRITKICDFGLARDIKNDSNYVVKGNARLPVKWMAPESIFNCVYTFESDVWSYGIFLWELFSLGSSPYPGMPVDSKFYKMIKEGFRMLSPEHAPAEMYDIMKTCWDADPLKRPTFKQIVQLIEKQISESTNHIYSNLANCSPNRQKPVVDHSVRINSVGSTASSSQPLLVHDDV

COc1cc(CNc2ccc3c(c2)ncn3-c2ccccc2)ccc1OCCO
Activity (MOLM-13 [1]): 68.85%
Activity [2]: 78.45%
IC50 (HL-60): > 50000 nM
inhibition [3]: Active
Tmax [4]: 0.65 h
viability at 48 h, 0.5 µM [5]: 96.7%
Activity (MV4-11 [6]): 94.26%
IC50 (MOLM-13 [7]): 66.8 nM
Activity (MV4-11 [8]): Active
Activity [9]: 43.13%
Activity [10]: Non-Toxic
inhibition [11]: Dose-Dependent Effect
Activity (MOLM-13 [12]): 65.52%
half-life [13]: 4.28 h
IC50 (MV4-11 [14]): 165 nM
IC50 [15]: 160 nM
